The values that follow come from patent US6884820B2, “5,6,7,8-tetrahydronaphthalen-2-yl-7-fluoroalkyl-heptatrienoic acid derivatives having serum glucose reducing activity” (Allergan, Inc., priority 2003, dated 2005).

The target in experiment [1] is T1, RXRγ (Homo sapiens, UniProt P48443).
T1 sequence (P48443 1-463): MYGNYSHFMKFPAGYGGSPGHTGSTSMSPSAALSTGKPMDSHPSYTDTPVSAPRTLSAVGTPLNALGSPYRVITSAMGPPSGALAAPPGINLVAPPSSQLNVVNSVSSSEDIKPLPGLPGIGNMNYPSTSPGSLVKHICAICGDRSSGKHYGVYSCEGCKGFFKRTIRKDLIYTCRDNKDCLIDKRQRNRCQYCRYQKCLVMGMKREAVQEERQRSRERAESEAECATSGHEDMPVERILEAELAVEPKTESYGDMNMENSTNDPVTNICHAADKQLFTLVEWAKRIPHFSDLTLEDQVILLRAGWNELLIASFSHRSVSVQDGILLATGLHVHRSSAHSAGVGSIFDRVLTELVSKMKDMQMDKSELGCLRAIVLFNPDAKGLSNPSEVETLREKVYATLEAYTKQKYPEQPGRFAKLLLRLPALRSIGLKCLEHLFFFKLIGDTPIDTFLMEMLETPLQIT
The experiment can be described thus: holoreceptor transactivation assay, RXRγ. As to conditions: for RXR γ transactivation efficacy as a percentage compared to the standard compound: value in parentheses, relative to standard compound of U.S. Pat. No. 6,114,533.
Description: (§1) The results obtained in this assay are expressed in EC50 numbers, as they are also in the chimeric receptor transactivation assay.
(§2) Efficacy in a transactivation assay is expressed as a percentage of the maximum potency attained by the compound compared to a standard which, in this case, is the compound named (2E, 4E, 1′S, 2′S)-3-methyl-5-[2′-methyl-2′-(5,5,8,8-tetramethyl-5,6,7,8-tetrahydro-naphthalen-2-yl)-cyclopropyl]-penta-2,4-dienoic acid.
(§3) Particularly, the transactivation data pertaining to activation of the RAR receptors were obtained in the chimeric assay, and the transactivation data pertaining to the activation of RXR receptors were obtained in the holoreceptor assay.

The target of experiment [2] is T2, RARβ (Homo sapiens, UniProt P10826).
T2 sequence (P10826 1-455): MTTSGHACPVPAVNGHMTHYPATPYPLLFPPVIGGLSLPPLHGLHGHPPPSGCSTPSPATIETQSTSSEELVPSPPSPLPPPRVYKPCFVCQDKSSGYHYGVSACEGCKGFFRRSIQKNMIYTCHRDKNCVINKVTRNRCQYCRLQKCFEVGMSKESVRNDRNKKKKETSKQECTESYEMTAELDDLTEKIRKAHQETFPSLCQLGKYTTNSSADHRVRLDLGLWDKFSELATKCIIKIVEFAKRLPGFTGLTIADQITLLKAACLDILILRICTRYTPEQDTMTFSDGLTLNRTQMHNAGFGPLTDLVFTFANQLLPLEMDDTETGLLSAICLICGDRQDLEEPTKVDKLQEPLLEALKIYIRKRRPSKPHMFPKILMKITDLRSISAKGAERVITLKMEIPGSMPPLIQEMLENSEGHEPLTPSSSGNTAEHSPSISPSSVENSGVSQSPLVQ
The experiment can be described thus: ligand binding assay, RARβ.
Description: (§4) The results of the ligand binding assay are expressed in Ki numbers.

Experiment [3] concerns the target T3, RXRβ (Homo sapiens, UniProt P28702).
T3 sequence (P28702 1-533): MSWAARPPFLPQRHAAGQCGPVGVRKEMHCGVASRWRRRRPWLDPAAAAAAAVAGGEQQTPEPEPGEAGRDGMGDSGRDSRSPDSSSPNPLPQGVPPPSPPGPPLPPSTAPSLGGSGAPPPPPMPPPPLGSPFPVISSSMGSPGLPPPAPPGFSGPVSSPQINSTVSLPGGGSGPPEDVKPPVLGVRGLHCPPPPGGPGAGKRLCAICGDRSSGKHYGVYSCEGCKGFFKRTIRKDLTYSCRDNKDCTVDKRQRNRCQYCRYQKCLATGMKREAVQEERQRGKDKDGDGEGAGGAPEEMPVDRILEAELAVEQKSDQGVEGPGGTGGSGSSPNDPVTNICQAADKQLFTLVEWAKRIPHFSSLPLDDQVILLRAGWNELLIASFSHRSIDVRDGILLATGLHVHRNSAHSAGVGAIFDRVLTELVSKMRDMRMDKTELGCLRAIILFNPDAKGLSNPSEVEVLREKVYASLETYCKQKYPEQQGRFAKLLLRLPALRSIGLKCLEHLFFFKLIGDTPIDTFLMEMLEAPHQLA
Description: ligand binding assay, RXRβ.
Description: as §4

Experiment [4] addresses T4, RARγ (Homo sapiens, UniProt P13631).
T4 sequence (P13631 1-454): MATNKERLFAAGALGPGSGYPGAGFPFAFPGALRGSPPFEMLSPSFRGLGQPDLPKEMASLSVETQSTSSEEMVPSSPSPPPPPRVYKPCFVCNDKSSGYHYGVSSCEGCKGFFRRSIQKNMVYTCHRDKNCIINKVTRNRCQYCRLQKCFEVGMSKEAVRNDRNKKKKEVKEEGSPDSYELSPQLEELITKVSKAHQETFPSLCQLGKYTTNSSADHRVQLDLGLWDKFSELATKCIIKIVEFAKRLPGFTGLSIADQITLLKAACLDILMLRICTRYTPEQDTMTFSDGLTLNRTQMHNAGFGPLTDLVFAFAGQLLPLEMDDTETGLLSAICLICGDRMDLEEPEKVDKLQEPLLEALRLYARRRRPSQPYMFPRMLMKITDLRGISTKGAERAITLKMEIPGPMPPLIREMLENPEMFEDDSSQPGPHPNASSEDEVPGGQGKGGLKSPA
The experiment can be described thus: ligand binding assay, RARγ.
Description: as §4

In experiment [5] the target is T5, RARα (Homo sapiens, UniProt P10276).
T5 sequence (P10276 1-462): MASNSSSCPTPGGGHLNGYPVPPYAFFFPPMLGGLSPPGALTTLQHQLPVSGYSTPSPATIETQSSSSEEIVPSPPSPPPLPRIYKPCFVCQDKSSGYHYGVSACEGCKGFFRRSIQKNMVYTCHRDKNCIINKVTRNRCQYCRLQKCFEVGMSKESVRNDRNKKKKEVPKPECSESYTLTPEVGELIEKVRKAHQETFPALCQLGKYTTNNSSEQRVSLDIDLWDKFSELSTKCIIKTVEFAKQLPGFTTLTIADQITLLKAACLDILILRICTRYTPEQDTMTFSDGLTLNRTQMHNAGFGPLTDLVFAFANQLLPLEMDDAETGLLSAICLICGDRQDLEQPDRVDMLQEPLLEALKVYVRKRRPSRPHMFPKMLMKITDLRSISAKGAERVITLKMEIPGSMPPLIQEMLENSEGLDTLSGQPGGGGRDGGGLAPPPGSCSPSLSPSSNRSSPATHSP
The experiment can be described thus: ligand binding assay, RARα.
Description: as §4

The target of experiment [6] is T3, RXRβ. Description: holoreceptor transactivation assay, RXRβ. As to conditions: for RXR β transactivation efficacy as a percentage compared to the standard compound: value in parentheses, relative to standard compound of U.S. Pat. No. 6,114,533.
Description: as §1, §2, §3

As usually defined, the EC50 is the concentration needed to bring the measured effect to its halfway point. A higher EC50 goes with a less potent agent. Broadly, the Ki is the equilibrium dissociation constant of an inhibitor or competing ligand from its target. Read a low Ki as a stronger hold on the target.

On to `CC(/C=C/C=C(c1cc2c(cc1O)C(C)(C)CCC2(C)C)C(F)(F)F)=C\C(=O)O` (stereo in doubt) [Compound 4, (2E,4E,6Z)-8,8,8-Trifluoro-7-(3-hydroxy-5,5,8,8-tetramethyl-5,6,7,8-tetrahydro-naphthalen-2-yl)-3-methyl-octa-2,4,6-trienoic acid], for which the EC50 in experiment [1] stood at 16 nM; in experiment [6], 67 nM. The “RXR γ transactivation efficacy as a percentage compared to the standard compound” value in experiment [1] was determined as 69%. Besides, the Ki was 4400 nM in experiment [2], 2600 nM in experiment [3], 496 nM in experiment [4] and 2400 nM in experiment [5]. Also, the “RXR β transactivation efficacy as a percentage compared to the standard compound” value in experiment [6] came to 54%.
As for `CCOc1cc2c(cc1\C(=C/C=C/C(C)=C/C(=O)O)C(F)(F)F)C(C)(C)CCC2(C)C` [Compound 6, (2E,4E,6Z)-7-(3-Ethoxy-5,5,8,8-tetramethyl-5,6,7 8-tetrahydro-naphthalen-2-yl)-8,8,8-trifluoro-3-methyl-octa-2,4,6-trienoic acid], the figures for the EC50 in experiment [1] and in experiment [6] were 25 nM and 97 nM, respectively. Also, the “RXR γ transactivation efficacy as a percentage compared to the standard compound” value in experiment [1] is 17%. Further, the Ki in experiment [2] is 372 nM; in experiment [3] it was 68 nM; in experiment [4] it was above 10000 nM; in experiment [5] it was above 10000 nM. For the same molecule, the “RXR β transactivation efficacy as a percentage compared to the standard compound” value in experiment [6] turned out to be 30%.
